Patent US20050112573A1, “Method of detecting toxic substance” (priority 2001, published 2005)

System: yeast genes (level of expressed mRNA)
Assay: DNA chip analysis of expressed mRNA of yeast genes after 2 h culture with a toxic chemical substance
Assay type: cell-based, Saccharomyces cerevisiae S288C
Conditions: for The level of expressed mRNA in the presence of chemical substance/ (ratio to absence): transport facilitation protein gene; for The level of expressed mRNA in the presence of chemical substance/: ratio to no chemical; for The level of expressed mRNA in the presence of chemical substance/ (ratio to absence of chemical substance): stress protein genes, DNA chip
How it was run: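 S. cerevisiae S288C in YPD at 25 °C was exposed at log phase for 2 h to a growth-inhibiting, non-lethal concentration of the chemical. Poly(A) mRNA was reverse-transcribed with Cy3- or Cy5-dUTP and hybridized to a whole-genome yeast DNA chip (65 °C, >12 h). Values are fluorescence ratios versus untreated cells.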

sodium dodecylbenzosulfonate [(17)]
0.9: level of expressed mRNA in the presence of chemical substance/in its absence (gene YNL037C) | The level of expressed mRNA in the presence of chemical substance/absence: YNL063W (gene YNL063W) | level of expressed mRNA in the presence of chemical substance/in its absence (gene YNL104C) | The level of expressed mRNA in the presence of chemical substance/absence: YNL212W (gene YNL212W) | The level of expressed mRNA in the presence of chemical substance/absence: YNL265C (gene YNL265C) | level of expressed mRNA in the presence of chemical substance/in its absence (gene YNL322C) | level of expressed mRNA in the presence of chemical substance/in its absence (gene YNR033W) | The level of expressed mRNA in the presence of chemical substance/absence: YOL030W (gene YOL030W) | The level of expressed mRNA in the presence of chemical substance/absence: YOR253W (gene YOR253W) | level of expressed mRNA in the presence of chemical substance/in its absence (gene YPR026W) | The level of expressed mRNA in the presence of chemical substance/absence: YPR148C (gene YPR148C) | The level of expressed mRNA in the presence of chemical substance/absence: YPR150W (gene YPR150W) | The level of expressed mRNA in the presence of chemical substance/absence: YPR158W (gene YPR158W) | The level of expressed mRNA in the presence of chemical substance/ (ratio to absence of chemical substance) (yeast gene YBR044C) | The level of expressed mRNA in the presence of chemical substance/ (yeast gene YBR101C)
1.4: level of expressed mRNA in the presence of chemical substance/in its absence (gene YOL157C) | The level of expressed mRNA in the presence of chemical substance/absence: YPL150W (gene YPL150W) | The level of expressed mRNA in the presence of chemical substance/absence: YPR093C (gene YPR093C) | The level of expressed mRNA in the presence of chemical substance/absence: YPR174C (gene YPR174C) | The level of expressed mRNA in the presence of chemical substance/ (ratio to absence of chemical substance) (yeast gene YBL093C)
1.2: The level of expressed mRNA in the presence of chemical substance/absence: YNL200C (gene YNL200C) | level of expressed mRNA in the presence of chemical substance/in its absence (gene YOL058W) | level of expressed mRNA in the presence of chemical substance/in its absence (gene YOR099W) | The level of expressed mRNA in the presence of chemical substance/absence: YPL005W (gene YPL005W) | The level of expressed mRNA in the presence of chemical substance/absence: YPL152W (gene YPL152W) | The level of expressed mRNA in the presence of chemical substance/ (ratio to absence), gene YBL038W (yeast gene YBL038W, mitochondria-located protein genes, 2 h culture with chemical) | The level of expressed mRNA in the presence of chemical substance/in the absence of chemical substance (yeast gene YBR006W)
1.7: level of expressed mRNA in the presence of chemical substance/in its absence (gene YOR347C)
1.1: level of expressed mRNA in the presence of chemical substance/in its absence (gene YNL045W) | level of expressed mRNA in the presence of chemical substance/in its absence (gene YNL106C) | level of expressed mRNA in the presence of chemical substance/in its absence (gene YNL169C) | The level of expressed mRNA in the presence of chemical substance/absence: YNL253W (gene YNL253W) | The level of expressed mRNA in the presence of chemical substance/absence: YNL276C (gene YNL276C) | level of expressed mRNA in the presence of chemical substance/in its absence (gene YOL153C) | The level of expressed mRNA in the presence of chemical substance/absence: YOR022C (gene YOR022C) | The level of expressed mRNA in the presence of chemical substance/absence: YOR138C (gene YOR138C) | The level of expressed mRNA in the presence of chemical substance/absence: YPL168W (gene YPL168W) | The level of expressed mRNA in the presence of chemical substance/absence: YPR061C (gene YPR061C) | The level of expressed mRNA in the presence of chemical substance/absence: YPR169W (gene YPR169W) | The level of expressed mRNA in the presence of chemical substance/absence: YPR172W (gene YPR172W) | The level of expressed mRNA in the presence of chemical substance/in the absence of chemical substance (yeast gene YAL060W) | The level of expressed mRNA in the presence of chemical substance/ (yeast gene YBL065W) | The level of expressed mRNA in the presence of chemical substance/ (ratio to absence) (yeast gene YBR068C)
2.4: level of expressed mRNA in the presence of chemical substance/in its absence (gene YNR019W) | The level of expressed mRNA in the presence of chemical substance/in the absence of chemical substance (yeast gene YBR056W)
2.1: The level of expressed mRNA in the presence of chemical substance/absence: YOL026C (gene YOL026C) | The level of expressed mRNA in the presence of chemical substance/ (in its absence), gene YBR036C (yeast gene YBR036C, ratio of DNA chip fluorescence intensity to that without chemical substance)
1.5: level of expressed mRNA in the presence of chemical substance/in its absence (gene YNR002C) | level of expressed mRNA in the presence of chemical substance/in its absence (gene YOR130C) | The level of expressed mRNA in the presence of chemical substance/absence: YPL221W (gene YPL221W) | The level of expressed mRNA in the presence of chemical substance/The level of expressed mRNA in the absence of chemical substance (yeast gene YAR010C)
2.6: level of expressed mRNA in the presence of chemical substance/in its absence (gene YNR059W)
0.8: The level of expressed mRNA in the presence of chemical substance/absence: YNL058C (gene YNL058C) | The level of expressed mRNA in the presence of chemical substance/absence: YNL181W (gene YNL181W) | The level of expressed mRNA in the presence of chemical substance/absence: YNL194C (gene YNL194C) | The level of expressed mRNA in the presence of chemical substance/absence: YOR087W (gene YOR087W) | level of expressed mRNA in the presence of chemical substance/in its absence (gene YOR136W) | The level of expressed mRNA in the presence of chemical substance/absence: YOR155C (gene YOR155C) | The level of expressed mRNA in the presence of chemical substance/absence: YOR325W (gene YOR325W) | The level of expressed mRNA in the presence of chemical substance / the level in the absence of chemical substance, yeast gene YPL138C (gene YPL138C, DNA chip fluorescence ratio to control without chemical, 2 hours culture with chemical, growth-inhibiting non-lethal concentration) | The level of expressed mRNA in the presence of chemical substance/absence: YPL151C (gene YPL151C) | The level of expressed mRNA in the presence of chemical substance/absence: YPL249C (gene YPL249C) | The level of expressed mRNA in the presence of chemical substance/absence: YPL260W (gene YPL260W)
1.6: level of expressed mRNA in the presence of chemical substance/in its absence (gene YOL126C)
2.3: The level of expressed mRNA in the presence of chemical substance/The level of expressed mRNA in the absence of chemical substance (yeast gene YBL043W)
0.7: level of expressed mRNA in the presence of chemical substance/in its absence (gene YNL130C) | The level of expressed mRNA in the presence of chemical substance/absence: YNR051C (gene YNR051C) | The level of expressed mRNA in the presence of chemical substance/absence: YOR088W (gene YOR088W) | The level of expressed mRNA in the presence of chemical substance/absence: YPL188W (gene YPL188W) | The level of expressed mRNA in the presence of chemical substance/ (ratio to absence) (yeast gene YBL099W)
1.8: level of expressed mRNA in the presence of chemical substance/in its absence (gene YOL143C) | level of expressed mRNA in the presence of chemical substance/in its absence (gene YPR006C) | The level of expressed mRNA in the presence of chemical substance/The level of expressed mRNA in the absence of chemical substance (yeast gene YBL078C) | The level of expressed mRNA in the presence of chemical substance/ (ratio to absence) (yeast gene YBR052C)
1.3: The level of expressed mRNA in the presence of chemical substance/absence: YOR267C (gene YOR267C) | level of expressed mRNA in the presence of chemical substance/in its absence (gene YOR344C) | level of expressed mRNA in the presence of chemical substance/in its absence (gene YPL017C) | The level of expressed mRNA in the presence of chemical substance/The level of expressed mRNA in the absence of chemical substance (yeast gene YBL005W-A) | The level of expressed mRNA in the presence of chemical substance/The level of expressed mRNA in the absence of chemical substance (yeast gene YBL041W) | The level of expressed mRNA in the presence of chemical substance/ (yeast gene YBR047W)
0.5: The level of expressed mRNA in the presence of chemical substance/absence: YNL191W (gene YNL191W) | level of expressed mRNA in the presence of chemical substance/in its absence (gene YPL265W)
0.6: The level of expressed mRNA in the presence of chemical substance/absence: YNL176C (gene YNL176C)
1.0: level of expressed mRNA in the presence of chemical substance/in its absence (gene YOR336W) | The level of expressed mRNA in the presence of chemical substance / the level in the absence of chemical substance, yeast gene YPL107W (gene YPL107W, DNA chip fluorescence ratio to control without chemical, 2 hours culture with chemical, growth-inhibiting non-lethal concentration) | The level of expressed mRNA in the presence of chemical substance/absence: YPL180W (gene YPL180W) | The level of expressed mRNA in the presence of chemical substance/absence: YPL225W (gene YPL225W) | The level of expressed mRNA in the presence of chemical substance/absence: YPR049C (gene YPR049C) | The level of expressed mRNA in the presence of chemical substance/absence: YPR146C (gene YPR146C) | The level of expressed mRNA in the presence of chemical substance/in the absence of chemical substance (yeast gene YAL023C) | The level of expressed mRNA in the presence of chemical substance/in the absence of chemical substance (yeast gene YAL062W) | The level of expressed mRNA in the presence of chemical substance/ (ratio to absence) (yeast gene YAL067C) | The level of expressed mRNA in the presence of chemical substance/ (ratio to absence) (yeast gene YBL030C)
3.1: level of expressed mRNA in the presence of chemical substance/in its absence (gene YNL231C)
